The numbers were not newly measured in patent US20110217294A1, “COMBINATION OF HGF INHIBITOR AND HEDGEHOG INHIBITOR TO TREAT CANCER” (priority 2009, published 2011), which cites them from elsewhere.

In general, Kd refers to the concentration at which binding is half-saturated.

Data set [1] deals with heparin sulfate proteoglycans (HSPG). Conditions: low affinity binding site.
For the next data set, the target named is cMet receptor (Homo sapiens, UniProt P08581). Conditions: high affinity binding site.
cMet receptor, sequence (P08581 25-1390): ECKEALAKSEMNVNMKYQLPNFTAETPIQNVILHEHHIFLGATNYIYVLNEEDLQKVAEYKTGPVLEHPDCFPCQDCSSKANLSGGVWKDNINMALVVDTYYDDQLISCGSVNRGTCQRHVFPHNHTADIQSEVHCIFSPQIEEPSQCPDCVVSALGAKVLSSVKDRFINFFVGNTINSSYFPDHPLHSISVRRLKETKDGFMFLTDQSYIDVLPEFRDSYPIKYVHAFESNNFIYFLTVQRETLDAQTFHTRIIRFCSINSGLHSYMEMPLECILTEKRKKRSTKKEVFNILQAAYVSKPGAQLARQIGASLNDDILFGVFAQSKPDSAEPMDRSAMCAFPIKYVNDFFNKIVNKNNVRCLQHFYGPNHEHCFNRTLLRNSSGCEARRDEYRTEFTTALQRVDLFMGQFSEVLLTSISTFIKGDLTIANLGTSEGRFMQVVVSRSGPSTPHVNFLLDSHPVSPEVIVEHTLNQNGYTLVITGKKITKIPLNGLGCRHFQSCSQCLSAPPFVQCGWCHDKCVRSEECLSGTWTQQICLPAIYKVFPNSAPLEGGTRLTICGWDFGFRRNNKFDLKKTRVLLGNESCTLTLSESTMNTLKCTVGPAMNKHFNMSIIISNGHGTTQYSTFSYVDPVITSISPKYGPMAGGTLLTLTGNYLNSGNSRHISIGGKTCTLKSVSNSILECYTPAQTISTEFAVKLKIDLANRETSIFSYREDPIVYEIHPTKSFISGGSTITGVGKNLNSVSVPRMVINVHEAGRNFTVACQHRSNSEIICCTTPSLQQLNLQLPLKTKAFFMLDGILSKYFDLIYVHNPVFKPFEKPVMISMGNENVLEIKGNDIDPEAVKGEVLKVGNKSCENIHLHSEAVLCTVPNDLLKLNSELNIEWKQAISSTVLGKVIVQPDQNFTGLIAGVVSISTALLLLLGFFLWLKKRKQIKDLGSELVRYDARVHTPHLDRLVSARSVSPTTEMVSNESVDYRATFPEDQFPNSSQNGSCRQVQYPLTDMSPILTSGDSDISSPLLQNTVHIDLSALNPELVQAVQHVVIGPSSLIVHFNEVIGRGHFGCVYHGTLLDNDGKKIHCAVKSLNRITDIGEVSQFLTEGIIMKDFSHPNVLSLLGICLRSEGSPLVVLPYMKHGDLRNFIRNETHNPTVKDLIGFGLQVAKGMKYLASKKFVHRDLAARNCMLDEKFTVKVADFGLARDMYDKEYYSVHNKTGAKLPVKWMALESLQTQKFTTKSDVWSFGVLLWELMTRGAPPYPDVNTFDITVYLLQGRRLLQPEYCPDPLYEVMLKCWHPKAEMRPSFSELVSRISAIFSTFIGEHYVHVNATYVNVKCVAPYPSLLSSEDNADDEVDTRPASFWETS

“HGF: Human Hepatocyte Growth Factor, 102 kDa heterodimeric polypeptide”: the Kd in data set [1] is 1 nM; with cMet receptor, 0.2 nM.
